Experiment [1] addresses T1, ERα (Homo sapiens, UniProt P03372).
T1 sequence (P03372 1-595): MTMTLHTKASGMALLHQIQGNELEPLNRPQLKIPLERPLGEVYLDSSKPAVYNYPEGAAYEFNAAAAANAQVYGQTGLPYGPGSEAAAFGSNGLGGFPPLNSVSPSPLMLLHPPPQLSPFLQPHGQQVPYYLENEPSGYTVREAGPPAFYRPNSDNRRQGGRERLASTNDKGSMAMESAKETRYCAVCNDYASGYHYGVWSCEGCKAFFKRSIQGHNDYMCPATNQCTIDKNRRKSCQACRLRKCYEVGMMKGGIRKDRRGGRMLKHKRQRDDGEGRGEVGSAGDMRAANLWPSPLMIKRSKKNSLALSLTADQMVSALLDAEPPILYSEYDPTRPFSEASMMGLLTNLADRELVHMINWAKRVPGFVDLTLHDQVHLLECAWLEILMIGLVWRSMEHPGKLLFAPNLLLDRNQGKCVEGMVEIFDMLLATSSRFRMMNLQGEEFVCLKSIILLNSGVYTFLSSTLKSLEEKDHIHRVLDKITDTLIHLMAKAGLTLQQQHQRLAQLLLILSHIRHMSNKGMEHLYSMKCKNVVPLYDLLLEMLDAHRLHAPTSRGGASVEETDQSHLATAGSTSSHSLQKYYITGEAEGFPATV
In words: Estrogen receptor-alpha (ERα) degradation assay in MCF-7 cells using western blot. It counts as cell-based. The conditions noted are these: ER-alpha degradation, MCF7 cells, 3 days of incubation. More on the design: assessed for their activity in degrading ERα in MCF-7 cells via western blot; endogenous in cells; host or cells: MCF7 cells. The method, then:
Compounds prepared in this application were also analyzed for the degradation of ERα in MCF7 and T47D cells.
Estrogen Receptor-Alpha (ERα) Degradation Assay in MCF-7 Cells Using Western Blot Method for Table 4.
The exemplary novel ERα degraders were assessed for their activity in degrading ERα in MCF-7 cells via western blot. The assay was carried out in the presence of 10% fetal bovine serum (FBS) or high percentage of human or mouse serum.
MCF7 cells were grown in DMEM/F12 with 10% fetal bovine serum and seeded at 24,000 cells per well in 100 μl into 96-well clear tissue culture plates. The following day, the cells were treated with PROTACs in a […] concentration curve with 100 nM being the top concentration and serial dilutions to make the other concentrations (30 nM, 10 nM, 3 nM, 1 nM, and 0.3 nM). At all concentrations, 0.01% DMSO is the final concentration in the well. The following day, the plates are aspirated, washed with 50 μl of cold PBS. The cells are lysed with 50 μl/well 4° C. Cell Lysis Buffer (Catalog #9803; Cell Signaling Technology, Danvers, Mass.) (20 mM Tris-HCL (pH 7.5), 150 mM NaCl, 1 mM […], 1 mM EGTA, 1% Triton, 2.5 mM sodium pyrophosphate, 1 mM B-glycerophosphate, 1 mM sodium vanadate, 1 ug/ml leupeptin). Lysates were clarified at 16,000×g for 10 minutes, and 2 μg of protein was subjected to SDS-PAGE analysis and followed by immunoblotting according to standard protocols. The antibodies used were ERα (Cell Signaling Technologies Catalog #8644), and Tubulin (Sigma Catalog #T9026; St. Louis, Mo.). Detection reagents were Clarity Western ECL substrate (Bio-Rad Catalog #170-5060; Hercules, Calif.).
Alternatively, MCF7 cells were grown in DMEM/F12 with 10% fetal bovine serum and seeded at 24,000 cells per well in 500 μl in 24-well clear tissue culture plates. The following day, the cells were treated with PROTACs in a 5-point concentration curve (100 nM, 33 nM, 11 nM, 3.7 nM, and 1.2 nM) in the presence of 0.01% DMSO. After 72 hours, the wells are aspirated and washed with 500 μl of PBS. The cells are lysed with 100 μl/well 4° C. Cell Lysis Buffer (Catalog #9803; Cell Signaling Technology, Danvers, M A) (20 mM Tris-HCL (pH 7.5), 150 mM NaCl, 1 mM Na2EDTA, 1 mM EGTA, 1% Triton, 2.5 mM sodium pyrophosphate, 1 mM B-glycerophosphate, 1 mM sodium vanadate, 1 ug/ml leupeptin). Lysates were clarified at 16,000×g for 10 minutes, and 2 μg of protein was subjected to SDS-PAGE analysis and followed by immunoblotting according to standard protocols. The antibodies used were ER(X (Cell Signaling Technologies Catalog #8644), and Tubulin (Sigma Catalog #T9026; St. Louis, Mo.). Detection reagents were Clarity Western ECL substrate (Bio-Rad Catalog #170-5060; Hercules, Calif.).
Background: Immunoblotting shows a protein as a band on a membrane.

In experiment [2] the target is T1, ERα. Nature of the experiment: ERE luciferase reporter gene assay in T47D-KBluc cells (target engagement). Particulars: 10% FBS, 24 hours, Table 2 VHL centric PROTACs, read-out: IC50. The experiment is classed as cell-based. More on the design: T47D human breast cancer cells stably transfected with estrogen responsive element/promoter/luciferase reporter gene; host or cells: T47D-KBluc cells. The method, boiled down: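 PROTACs were tested at 12 concentrations from 300 nM down to 2 pM in 3-fold steps for 24 h on T47D-KBluc cells with a stable ERE-driven luciferase. Medium was RPMI with 10% FBS, measured at 10 pM estrogen. IC50 came from luminescence after lysis, in duplicate.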

Structures are written as SMILES.

The term DC50 denotes the concentration giving 50% degradation. The term Dmax denotes the largest share of the target that was removed. Higher therefore signals deep degradation. One may read the IC50 as the concentration at which inhibition is half-maximal.

On ERα [1], `Cc1ncsc1-c1ccc([C@H](C)NC(=O)[C@@H]2C[C@@H](O)CN2C(=O)[C@@H](NC(=O)COCCOCCN2CCC(c3ccc(Oc4c(-c5ccc(F)cc5)sc5cc(O)ccc45)cc3)CC2)C(C)(C)C)cc1` [Compound 142, (2S,4R)-1-[(2S)-2-[2-(2-[2-[4-(4-[[2-(4-fluorophenyl)-6-hydroxy-1-benzothiophen-3-yl]oxy]phenyl)piperidin-1-yl]ethoxy]ethoxy)acetamido]-3,3-dimethylbutanoyl]-4-hydroxy-N-[(1S)-1-[4-(4-methyl-1,3-thiazol-5-yl)phenyl]ethyl]pyrrolidine-2-carboxamide] had a DC50 of less than 1 nM and a Dmax of more than 75%. Moreover, on ERα [2], the IC50 came to 0.5 nM.
For `Cc1ncsc1-c1ccc(CNC(=O)[C@@H]2C[C@@H](O)CN2C(=O)[C@@H](NC(=O)COCCN2CCN(CCOc3ccc(Oc4c(-c5ccc(Br)cc5)sc5cc(O)ccc45)cc3)CC2)C(C)(C)C)cc1` [Compound 140, (2S,4R)-1-[(2S)-2-[2-(2-[4-[2-(4-[[2-(4-bromophenyl)-6-hydroxy-1-benzothiophen-3-yl]oxy]phenoxy)ethyl]piperazin-1-yl]ethoxy)acetamido]-3,3-dimethylbutanoyl]-4-hydroxy-N-[[4-(4-methyl-1,3-thiazol-5-yl)phenyl]methyl]pyrrolidine-2-carboxamide] the same measures were 1 to 10 nM, more than 75% and 11 nM.
Turning to `Cc1ncsc1-c1ccc([C@H](C)NC(=O)[C@@H]2C[C@@H](O)CN2C(=O)[C@@H](NC(=O)COCCOCCOCCOc2ccc(Oc3c(-c4ccc(Cl)cc4)sc4cc(O)ccc34)cc2)C(C)(C)C)cc1` [Compound 119, (2S,4R)-1-((S)-2-tert-butyl-14-(4-(2-(4-chlorophenyl)-6-hydroxybenzo[b]thiophen-3-yloxy)phenoxy)-4-oxo-6,9,12-trioxa-3-azatetradecane)-4-hydroxy-N-((S)-1-(4-(4-methylthiazol-5-yl)phenyl)ethyl)pyrrolidine-2-carboxamide], at ERα [1], the DC50 lay within 1 to 10 nM and the Dmax is more than 75%. The IC50 on ERα [2] is 1.1 nM.
At ERα [1], `Cc1ncsc1-c1ccc(CNC(=O)[C@@H]2C[C@@H](O)CN2C(=O)C(c2cc(OCCN3CCN(CCOc4ccc(Oc5c(-c6ccc(Br)cc6)sc6cc(O)ccc56)cc4)CC3)no2)C(C)C)cc1` (stereo in doubt) [Compound 164, (2S,4R)-1-((S)-2-(3-(2-(4-(2-(4-((2-(4-bromophenyl)-6-hydroxybenzo[b]thiophen-3-yl)oxy)phenoxy)ethyl)piperazin-1-yl)ethoxy)isoxazol-5-yl)-3-methylbutanoyl)-4-hydroxy-N-(4-(4-methylthiazol-5-yl)benzyl)pyrrolidine-2-carboxamide] showed a DC50 of 1 to 10 nM and a Dmax of 50 to 75%. In addition, at ERα [2], the IC50 was found to be 2.7 nM.
Regarding `Cc1ncoc1-c1ccc([C@H](C)NC(=O)[C@@H]2C[C@@H](O)CN2C(=O)[C@@H](NC(=O)COCCOCCOCCOc2ccc(Oc3c(-c4ccc(Br)cc4)sc4cc(O)ccc34)cc2)C(C)(C)C)cc1` [Compound 127, (2S,4R)-1-((S)-14-(4-(2-(4-bromophenyl)-6-hydroxybenzo[b]thiophen-3-yloxy)phenoxy)-2-tert-butyl-4-oxo-6,9,12-trioxa-3-azatetradecane)-4-hydroxy-N-((S)-1-(4-(4-methyloxazol-5-yl)phenyl)ethyl)pyrrolidine-2-carboxamide], at ERα [1], the half-maximal degradation concentration (DC50) is less than 1 nM and the Dmax was more than 75%. At ERα [2], the IC50 is 0.2 nM.
Turning to `C[C@H](NC(=O)[C@@H]1C[C@@H](O)CN1C(=O)[C@@H](NC(=O)COCCOCCN(C)CCOc1ccc(Oc2c(-c3ccc(F)cc3)sc3cc(O)ccc23)cc1)C(C)(C)C)c1ccc(Cl)cc1` [Compound 129], on ERα [1], the DC50 was in the range of 1 to 10 nM and the Dmax was more than 75%. At ERα [2], the IC50 amounted to 1.4 nM.
At ERα [1], `Cc1ncsc1-c1ccc(CNC(=O)[C@@H]2C[C@@H](O)CN2C(=O)[C@@H](NC(=O)CN2CCC(N3CC(OCCOc4ccc(Oc5c(-c6ccc(Br)cc6)sc6cc(O)ccc56)cc4)C3)CC2)C(C)(C)C)cc1` [Compound 160, (2S,4R)-1-[(2S)-2-[2-(4-[3-[2-(4-[[2-(4-bromophenyl)-6-hydroxy-1-benzothiophen-3-yl]oxy]phenoxy)ethoxy]azetidin-1-yl]piperidin-1-yl)acetamido]-3,3-dimethylbutanoyl]-4-hydroxy-N-[[4-(4-methyl-1,3-thiazol-5-yl)phenyl]methyl]pyrrolidine-2-carboxamide] showed a DC50 of 1 to 10 nM and a Dmax of more than 75%. At ERα [2], the IC50 worked out at 6.3 nM.
On ERα [1], `Cc1ncsc1-c1ccc([C@H](C)NC(=O)[C@@H]2C[C@@H](O)CN2C(=O)[C@@H](NC(=O)COCCN2CCN(CCOc3ccc(Oc4c(-c5ccc(Br)cc5)sc5cc(O)ccc45)cc3)CC2)C(C)(C)C)cc1` [Compound 153, (2S,4R)-1-[(2S)-2-[2-(2-[4-[2-(4-[[2-(4-bromophenyl)-6-hydroxy-1-benzothiophen-3-yl]oxy]phenoxy)ethyl]piperazin-1-yl]ethoxy)acetamido]-3,3-dimethylbutanoyl]-4-hydroxy-N-[(1S)-1-[4-(4-methyl-1,3-thiazol-5-yl)phenyl]ethyl]pyrrolidine-2-carboxamide] yielded a DC50 of 1 to 10 nM and a maximal degradation (Dmax) of more than 75%. On ERα [2], the IC50 stood at 3.2 nM.
As to `Cc1ncsc1-c1ccc(CNC(=O)[C@@H]2C[C@@H](O)CN2C(=O)[C@@H](NC(=O)CN2CCN(CCOCCOc3ccc(Oc4c(-c5ccc(Br)cc5)sc5cc(O)ccc45)cc3)CC2)C(C)(C)C)cc1` [Compound 158, (2S,4R)-1-[(2S)-2-[2-(4-[2-[2-(4-[[2-(4-bromophenyl)-6-hydroxy-1-benzothiophen-3-yl]oxy]phenoxy)ethoxy]ethyl]piperazin-1-yl)acetamido]-3,3-dimethylbutanoyl]-4-hydroxy-N-[[4-(4-methyl-1,3-thiazol-5-yl)phenyl]methyl]pyrrolidine-2-carboxamide], on ERα [1], the DC50 lay in the range of 10 to 100 nM and the Dmax is more than 75%. For the same compound, at ERα [2], the IC50 turned out to be 13.7 nM.
Consider `Cc1ncsc1-c1ccc([C@H](C)NC(=O)[C@@H]2C[C@@H](O)CN2C(=O)[C@@H](NC(=O)COCCOCCOCCOc2ccc(Oc3c(-c4ccc(F)cc4)sc4cc(O)ccc34)cc2)C(C)(C)C)cc1` [Compound 111, (2S,4R)-1-((S)-2-tert-butyl-14-(4-(2-(4-fluorophenyl)-6-hydroxybenzo[b]thiophen-3-yloxy)phenoxy)-4-oxo-6,9,12-trioxa-3-azatetradecane)-4-hydroxy-N—((S)-1-(4-(4-methylthiazol-5-yl)phenyl)ethyl)pyrrolidine-2-carboxamide], for which, at ERα [1], the DC50 is less than 1 nM and the maximal degradation (Dmax) was more than 75%. Further, the IC50 on ERα [2] stood at 0.6 nM.
